Source: patent US9161965B2, “Treatment for epilepsy” (NoNO Inc., priority 2008, dated 2015)
Entries after “also recorded” stand apart in the source; their conditions may differ.

Legend:
[1] = target: N-type calcium channels (Homo sapiens, UniProt Q00975); conditions: cited from earlier work
[2] = test system: rats with status epilepticus induced by the RLDP procedure; assay: Morris water maze (visual-spatial memory) at 8 weeks post-SE; assay type: in vivo, rat; conditions: administered 3 hours post-SE
Description: (§1) We investigated possible behavioral effects of 60 min SE induced with the RLDP procedure. Visual-spatial memory was investigated with the Morris water maze (MWM) at 8 weeks post-SE to detect chronic cognitive impairment. The MWM is of particular usefulness with studies involving therapeutic agents, since the severity of neurodegeneration in the anterior CA1 region is strongly correlated with performance (escape latency) (Clasussen et al, 2005). […] All groups contained at least 6 animals.
In our study animals were trained on the MWM task for 14 consecutive days, with 6 trials completed daily. […] No SE animals, however, learned the task within 6 consecutive days, with no further improvement in escape latency thereafter.

[3] = test system: animal models of stroke; conditions: applied before or 1 hour after a stroke; cited from earlier work
[4] = test system: male Wistar rats with pilocarpine-induced status epilepticus; assay: Neuron loss (NeuN-positive cell counts) after status epilepticus in the lithium-pilocarpine rat model
Description: Male Wistar rats between 350 to 400 grams were pretreated with lithium chloride (ip; 3 mEq/kg) 17 to 24 hours before systemic injection of the chemoconvulsant pilocarpine. Pilocarpine (ip; 10 mg/kg) was administered every 30 minutes until onset of status epilepticus (SE), which was defined as a loss of consciousness and continuous overt seizure activity. […] Rats generally developed SE shortly thereafter. […] SE was terminated at 1, 3 and 5 hours following onset of SE with diazepam (ip; 4 mg/kg).
Animals were anaesthetized with ketamine and Romptum, and transcardially perfused with paraformaldehyde (PFA; 4% in 0.1M phosphate buffer, pH 7.4) 2 weeks after SE induction. Brains were removed, post-fixed overnight in PFA, and then equilibrated in 30% sucrose in PBS. Brains were then frozen at −35° C. in methylbutane and stored until further use at −70° C. in scintillation vials containing frozen 30% sucrose in PBS to prevent freezer drying. The brains were coronally sectioned at 40 μm using a freezing microtome and stored at −20° C. in 24-well plates containing antifreeze solution (15% glucose, 30% ethylene glycol, 50 mMol phosphate buffer; pH 7.4).
For each animal, neuronal cells were quantified by immunohistochemical staining with NeuN, a neuronal cell specific antibody.

[5] = test system: male Wistar rats with pilocarpine-induced status epilepticus; assay: Lateral ventricle size after SE, Nissl (cresyl violet) stained brain sections; assay type: in vivo, rat; conditions: treated at 3 hours post-SE (0.3 and 3 nmol/gm); 14 days post-SE
Description: Following pilocarpine and Tat-NR2B9c administration, and fixing of brain sections, as described above, every 6th section was used for Niss1 staining with cresyl violet. Sections were mounted and allowed to air dry on gelatin coated slides. The sections were rehydrated in an alcohol series at 100%, 95%, 70%, and 50% each for 5 minutes. The sections are then placed in water for 1 minute, followed by the Cresyl Violet Stain for 20 to 30 minutes. Sections are rinsed (30 seconds×2) in water, and dehydrated in an alcohol series at 50% for 5 minutes (or less), 70% for 5 minutes (or less), 95% for 5 minutes (or less), 100% for 5 minutes (or less), and 100% for 5 minutes (or less). Differentiation occurs maximally at the 50% and 70% alcohol gradients. Sections were cleared in xylene for 5 minutes and coverslipped with Permount, and viewed, e.g., under 40× magnification.

[6] = test system: rats with status epilepticus induced by the RLDP procedure; assay: Elevated plus maze (exploratory behaviour) at 8 weeks post-SE; assay type: in vivo, rat; conditions: administered 3 hours post-SE, 5 minutes on maze
Description: as §1
The elevated plus maze is used to investigate exploratory behaviour. At 8 weeks post-SE, animals were placed on the elevated plus maze for 5 minutes and videotaped. […] Furthermore, SE animals had reduced frequency of lookouts into the open arm and rearing episodes when compared to controls (FIGS. 12 E & F).

[7] = stroke indication; cited from earlier work

Chain of N-type calcium channels (Q00975 whole entry): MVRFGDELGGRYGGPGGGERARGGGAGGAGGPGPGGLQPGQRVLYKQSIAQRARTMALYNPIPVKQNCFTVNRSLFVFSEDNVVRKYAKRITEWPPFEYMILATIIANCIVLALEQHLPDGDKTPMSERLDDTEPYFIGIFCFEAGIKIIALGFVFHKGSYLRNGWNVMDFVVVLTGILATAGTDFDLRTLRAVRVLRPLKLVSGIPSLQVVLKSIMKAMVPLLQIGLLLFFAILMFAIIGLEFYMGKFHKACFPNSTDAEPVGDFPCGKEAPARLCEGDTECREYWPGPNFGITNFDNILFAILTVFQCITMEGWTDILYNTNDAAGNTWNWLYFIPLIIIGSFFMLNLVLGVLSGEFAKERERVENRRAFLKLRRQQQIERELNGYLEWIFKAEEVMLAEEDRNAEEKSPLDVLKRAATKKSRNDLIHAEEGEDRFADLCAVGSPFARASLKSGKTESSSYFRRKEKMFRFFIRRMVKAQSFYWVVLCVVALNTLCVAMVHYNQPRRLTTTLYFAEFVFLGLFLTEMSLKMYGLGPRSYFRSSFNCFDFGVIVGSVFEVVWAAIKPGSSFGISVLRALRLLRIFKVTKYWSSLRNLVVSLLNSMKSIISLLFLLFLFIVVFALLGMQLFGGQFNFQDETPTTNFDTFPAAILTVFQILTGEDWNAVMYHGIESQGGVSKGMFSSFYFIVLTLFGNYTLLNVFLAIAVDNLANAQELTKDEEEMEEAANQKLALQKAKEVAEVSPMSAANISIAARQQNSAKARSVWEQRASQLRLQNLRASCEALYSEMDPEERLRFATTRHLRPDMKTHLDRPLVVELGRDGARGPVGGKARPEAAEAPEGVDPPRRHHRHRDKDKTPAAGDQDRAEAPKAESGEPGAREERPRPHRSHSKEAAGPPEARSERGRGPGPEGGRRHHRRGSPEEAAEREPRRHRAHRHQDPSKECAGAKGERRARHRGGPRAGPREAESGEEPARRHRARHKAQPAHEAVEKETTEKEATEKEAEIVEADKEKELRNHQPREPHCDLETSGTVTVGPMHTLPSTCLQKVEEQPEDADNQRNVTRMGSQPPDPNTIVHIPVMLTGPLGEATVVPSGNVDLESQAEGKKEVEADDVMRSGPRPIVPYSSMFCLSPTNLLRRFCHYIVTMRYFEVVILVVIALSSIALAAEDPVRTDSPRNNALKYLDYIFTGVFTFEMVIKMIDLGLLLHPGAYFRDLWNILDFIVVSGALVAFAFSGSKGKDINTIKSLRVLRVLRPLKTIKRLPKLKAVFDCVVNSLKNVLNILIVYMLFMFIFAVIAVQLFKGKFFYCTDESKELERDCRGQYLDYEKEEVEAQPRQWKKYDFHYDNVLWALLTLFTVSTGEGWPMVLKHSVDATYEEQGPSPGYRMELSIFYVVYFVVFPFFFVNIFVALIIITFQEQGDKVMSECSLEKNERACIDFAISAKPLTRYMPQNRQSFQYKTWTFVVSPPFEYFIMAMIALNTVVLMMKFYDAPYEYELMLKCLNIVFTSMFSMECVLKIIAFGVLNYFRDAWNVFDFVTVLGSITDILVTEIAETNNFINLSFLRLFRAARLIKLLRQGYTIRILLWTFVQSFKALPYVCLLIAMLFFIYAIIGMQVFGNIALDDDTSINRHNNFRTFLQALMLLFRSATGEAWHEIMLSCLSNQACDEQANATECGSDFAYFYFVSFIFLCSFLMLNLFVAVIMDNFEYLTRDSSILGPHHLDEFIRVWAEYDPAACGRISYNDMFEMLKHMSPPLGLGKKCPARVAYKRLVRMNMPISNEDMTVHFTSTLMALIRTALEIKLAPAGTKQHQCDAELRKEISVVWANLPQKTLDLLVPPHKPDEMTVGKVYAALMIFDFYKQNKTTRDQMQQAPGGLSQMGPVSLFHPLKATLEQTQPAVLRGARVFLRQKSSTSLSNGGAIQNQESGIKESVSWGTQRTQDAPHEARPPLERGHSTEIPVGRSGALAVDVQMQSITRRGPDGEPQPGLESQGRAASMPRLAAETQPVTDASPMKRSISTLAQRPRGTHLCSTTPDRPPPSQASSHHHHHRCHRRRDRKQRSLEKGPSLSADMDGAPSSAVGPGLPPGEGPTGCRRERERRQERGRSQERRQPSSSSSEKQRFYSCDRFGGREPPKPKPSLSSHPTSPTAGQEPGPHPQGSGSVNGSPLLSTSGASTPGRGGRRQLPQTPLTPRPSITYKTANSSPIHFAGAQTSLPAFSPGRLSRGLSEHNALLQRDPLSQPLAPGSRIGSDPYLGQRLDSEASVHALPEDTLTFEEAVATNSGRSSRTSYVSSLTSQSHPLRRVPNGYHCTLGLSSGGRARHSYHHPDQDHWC

Sequence	Binding to and inhibition of N-type calcium channels [1]	Escape latency performance, Morris water maze [2]	Neuroprotection in animal models of stroke [3]	Neuroprotection / neuron loss (NeuN-positive cells), peptide administered during status epilepticus ([4]; administered 10 minutes following initiation of SE, 0.3, 3 and 9 nmol/gm, 7 days after SE)	NeuN-immunostaining of coronal sections of the dorsal hippocampus (histochemical visualization) ([4]; administered 3 hours following the insult, 2.5x and 40x magnification)	Neuroprotection / neuron loss (NeuN-positive cells), anterior (dorsal) CA1 region of the hippocampus ([4]; administered via femoral vein 3 hours after termination of SE, 0.3 or 3 nmol/gm, 14 days recovery)	Number of surviving neuronal cells near the subicular border of the CA1 region ([4]; compared to saline-treated animals)	Neuroprotection in the CA4 region ([4]; rat, in vivo)	Size of lateral ventricles following SE [5]	Effects of SE on exploratory behaviour / cognitive impairment, elevated plus maze [6]	Adverse events / side effects in phase I clinical trials [7]
YGRKKRRQRRR [standard tat peptide]	binds to and inhibits N-type calcium channels										
YGRKKRRQRRRKLSSIESDV (synthetic chimeric PDZ-binding ligand (PL) motif active peptide linked to HIV TAT internalization peptide, Tat-NR2B9c-(SDV))		improves escape latency performance, especially during the initial 5 days of acquisition learning	highly neuroprotective	did not decrease neuron loss; also recorded: comparable to neuron loss in untreated rats; also recorded: not during	increased NeuN-immunostaining; also recorded: This effect was reversed	rescued neuron loss in a dose-dependent manner; also recorded: especially protective; also recorded: conferred neuroprotection; also recorded: neuroprotective in the anterior CA1 region of the hippocampus; also recorded: neuroprotective when administered after; also recorded: dose-dependent neuroprotection	increased the number of surviving neuronal cells	confers neuroprotection	reduced them to the size found in rats who had not been given pilocarpine; also recorded: dramatic reduction of lateral ventricle size; also recorded: noticeably smaller lateral ventricles	decreased these effects of SE on exploratory behavior; also recorded: reduces the cognitive impairment caused by status epilepticus	without serious adverse events
